Patent publication US20240132521A1, “COMPOUNDS AND METHODS FOR MODULATING HER2” (Iambic Therapeutics, Inc., priority 2022, published 2024)
Structures can show the parent of a compound that is named as a salt. Where two headings read alike, the source gives them in different places.

Columns and labels:
Type in all cases: cell-based
BaF3_EGFRWT cells = BaF3_EGFRWT cells (Homo sapiens, UniProt P00533); assay: Cell growth inhibition assay (CellTiterGlo), BaF3_EGFRWT
BaF3_HER2WT cells = BaF3_HER2WT cells (Homo sapiens, UniProt P04626); assay: Cell growth inhibition assay (CellTiterGlo), BaF3_HER2WT
BaF3_HER2YVMA cells = BaF3_HER2YVMA cells (Homo sapiens, UniProt P04626, DUP772-775, cells depend on it); assay: Cell growth inhibition assay (CellTiterGlo), BaF3_HER2YVMA
[1] = 3-day treatment, CellTiterGlo, read-out: Cell growth inhibition activity, EGFR WT
[2] = 3-day treatment, CellTiterGlo, read-out: Cell growth inhibition activity, HER2 WT
[3] = cell growth inhibition, 3 days treatment, read-out: HER2 WT IC50
[4] = cell growth inhibition, 3 days treatment, read-out: HER2 - YVMA IC50
[5] = cell growth inhibition, 80 ng/mL EGF, 3 days treatment, read-out: EGFR WT IC50

Sequence of BaF3_EGFRWT cells (P00533 whole entry, change not shown): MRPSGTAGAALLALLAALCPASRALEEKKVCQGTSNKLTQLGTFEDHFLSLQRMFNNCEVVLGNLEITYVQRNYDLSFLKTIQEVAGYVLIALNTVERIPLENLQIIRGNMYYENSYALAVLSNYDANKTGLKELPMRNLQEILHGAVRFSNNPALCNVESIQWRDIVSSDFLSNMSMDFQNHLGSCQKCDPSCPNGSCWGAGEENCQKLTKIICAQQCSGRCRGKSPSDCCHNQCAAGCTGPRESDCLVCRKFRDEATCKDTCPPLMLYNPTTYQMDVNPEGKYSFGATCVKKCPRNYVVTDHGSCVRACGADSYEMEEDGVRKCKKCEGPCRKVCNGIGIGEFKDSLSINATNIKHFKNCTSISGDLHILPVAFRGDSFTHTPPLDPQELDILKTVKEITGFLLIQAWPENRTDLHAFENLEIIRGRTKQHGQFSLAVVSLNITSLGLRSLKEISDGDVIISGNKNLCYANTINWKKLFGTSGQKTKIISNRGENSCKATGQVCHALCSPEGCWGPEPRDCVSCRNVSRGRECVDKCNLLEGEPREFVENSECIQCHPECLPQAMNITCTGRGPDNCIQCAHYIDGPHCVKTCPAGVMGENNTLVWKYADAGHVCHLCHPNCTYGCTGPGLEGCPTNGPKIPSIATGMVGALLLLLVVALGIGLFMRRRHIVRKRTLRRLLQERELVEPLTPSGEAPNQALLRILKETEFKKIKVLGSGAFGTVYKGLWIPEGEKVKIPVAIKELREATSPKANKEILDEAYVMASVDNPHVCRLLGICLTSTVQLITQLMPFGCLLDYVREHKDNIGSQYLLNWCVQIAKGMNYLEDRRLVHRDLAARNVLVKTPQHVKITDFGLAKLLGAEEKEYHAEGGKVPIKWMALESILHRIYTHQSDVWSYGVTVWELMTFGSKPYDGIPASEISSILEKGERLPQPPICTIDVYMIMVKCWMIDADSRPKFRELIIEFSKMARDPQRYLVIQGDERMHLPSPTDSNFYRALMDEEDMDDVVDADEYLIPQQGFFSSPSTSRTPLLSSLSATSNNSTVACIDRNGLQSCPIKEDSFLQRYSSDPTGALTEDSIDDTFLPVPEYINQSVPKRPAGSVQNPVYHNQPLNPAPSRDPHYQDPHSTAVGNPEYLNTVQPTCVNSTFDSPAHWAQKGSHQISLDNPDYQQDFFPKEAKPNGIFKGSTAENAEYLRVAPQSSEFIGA
Sequence of BaF3_HER2WT cells (P04626 whole entry, change not shown): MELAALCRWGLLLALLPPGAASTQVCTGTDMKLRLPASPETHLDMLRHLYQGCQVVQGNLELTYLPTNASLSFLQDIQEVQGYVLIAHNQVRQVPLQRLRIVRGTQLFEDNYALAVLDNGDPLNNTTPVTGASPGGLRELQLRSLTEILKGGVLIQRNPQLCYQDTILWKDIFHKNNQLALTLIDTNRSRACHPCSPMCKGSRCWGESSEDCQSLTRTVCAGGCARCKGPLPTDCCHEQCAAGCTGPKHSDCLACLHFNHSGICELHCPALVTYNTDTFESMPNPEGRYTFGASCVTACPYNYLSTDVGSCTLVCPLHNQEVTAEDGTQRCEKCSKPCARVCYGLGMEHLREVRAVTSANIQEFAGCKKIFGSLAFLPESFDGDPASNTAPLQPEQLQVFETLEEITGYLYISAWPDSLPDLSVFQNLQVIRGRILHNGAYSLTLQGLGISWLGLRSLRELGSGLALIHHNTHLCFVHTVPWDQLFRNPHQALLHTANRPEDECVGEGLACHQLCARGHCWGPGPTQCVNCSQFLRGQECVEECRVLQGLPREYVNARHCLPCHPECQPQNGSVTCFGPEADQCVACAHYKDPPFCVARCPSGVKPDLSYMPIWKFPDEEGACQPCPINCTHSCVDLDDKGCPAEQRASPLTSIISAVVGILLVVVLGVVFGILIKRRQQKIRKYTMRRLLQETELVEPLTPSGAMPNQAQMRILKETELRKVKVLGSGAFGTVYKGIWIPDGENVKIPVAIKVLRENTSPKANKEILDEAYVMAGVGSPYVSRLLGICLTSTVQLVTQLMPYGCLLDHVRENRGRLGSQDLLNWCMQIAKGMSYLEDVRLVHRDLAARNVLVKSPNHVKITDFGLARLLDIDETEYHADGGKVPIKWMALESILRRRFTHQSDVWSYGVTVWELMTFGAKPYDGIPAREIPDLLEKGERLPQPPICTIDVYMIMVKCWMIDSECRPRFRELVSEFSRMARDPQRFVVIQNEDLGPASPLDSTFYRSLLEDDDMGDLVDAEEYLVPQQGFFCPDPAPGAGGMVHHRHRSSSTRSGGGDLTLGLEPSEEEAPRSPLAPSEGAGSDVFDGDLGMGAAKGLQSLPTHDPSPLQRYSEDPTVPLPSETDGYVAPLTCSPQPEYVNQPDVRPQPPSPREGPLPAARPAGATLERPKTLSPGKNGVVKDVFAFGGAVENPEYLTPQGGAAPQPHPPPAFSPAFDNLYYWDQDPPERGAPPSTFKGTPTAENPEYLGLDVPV
Sequence of BaF3_HER2YVMA cells (P04626 with tags, fused parts or gaps DUP772-775): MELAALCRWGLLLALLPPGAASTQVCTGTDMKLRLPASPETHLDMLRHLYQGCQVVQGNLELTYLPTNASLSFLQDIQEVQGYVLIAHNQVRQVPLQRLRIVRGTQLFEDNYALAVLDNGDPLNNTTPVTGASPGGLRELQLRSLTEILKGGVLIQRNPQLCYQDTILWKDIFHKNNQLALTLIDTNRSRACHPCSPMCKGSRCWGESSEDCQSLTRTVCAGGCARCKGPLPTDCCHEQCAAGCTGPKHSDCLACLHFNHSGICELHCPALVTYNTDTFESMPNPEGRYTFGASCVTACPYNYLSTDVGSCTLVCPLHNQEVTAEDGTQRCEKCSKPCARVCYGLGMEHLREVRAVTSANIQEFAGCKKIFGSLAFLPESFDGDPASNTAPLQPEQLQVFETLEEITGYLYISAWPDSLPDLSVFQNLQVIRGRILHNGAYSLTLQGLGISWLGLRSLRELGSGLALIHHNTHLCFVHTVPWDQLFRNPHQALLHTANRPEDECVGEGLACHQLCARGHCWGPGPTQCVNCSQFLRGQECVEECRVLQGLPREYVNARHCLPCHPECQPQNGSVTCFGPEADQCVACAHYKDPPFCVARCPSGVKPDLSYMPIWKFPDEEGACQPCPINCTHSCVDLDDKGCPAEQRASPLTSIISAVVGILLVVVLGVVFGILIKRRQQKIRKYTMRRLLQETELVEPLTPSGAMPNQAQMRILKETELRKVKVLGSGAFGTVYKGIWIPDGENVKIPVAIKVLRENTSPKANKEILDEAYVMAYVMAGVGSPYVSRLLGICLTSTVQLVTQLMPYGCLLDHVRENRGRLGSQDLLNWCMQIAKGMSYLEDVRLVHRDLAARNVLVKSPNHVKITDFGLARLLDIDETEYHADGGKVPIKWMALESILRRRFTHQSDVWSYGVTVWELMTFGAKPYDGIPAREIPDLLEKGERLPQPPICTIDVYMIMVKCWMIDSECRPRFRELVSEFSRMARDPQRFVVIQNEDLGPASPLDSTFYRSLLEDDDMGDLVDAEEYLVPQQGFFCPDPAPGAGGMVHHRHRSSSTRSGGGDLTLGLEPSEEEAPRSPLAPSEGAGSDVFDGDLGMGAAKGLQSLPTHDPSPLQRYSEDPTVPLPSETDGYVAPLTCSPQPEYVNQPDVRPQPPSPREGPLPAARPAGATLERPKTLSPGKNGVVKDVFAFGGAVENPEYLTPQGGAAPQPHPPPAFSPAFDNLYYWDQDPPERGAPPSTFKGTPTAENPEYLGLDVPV

COC1CCN(C/C=C/C(=O)N2CCC(c3ccn4ncnc(Nc5ccc(Oc6ccc7c(c6)ncn7C)c(C)c5)c34)CC2)C1 (racemic) [Example 106, (E)-4-(3-methoxypyrrolidin-1-yl)-1-(4-(4-((3-methyl-4-((1-methyl-1H-benzo[d]imidazol-5-yl)oxy)phenyl)amino)pyrrolo[2,1-f][1,2,4]triazin-5-yl)piperidin-1-yl)but-2-en-1-one] was tested. Which GI50 (BaF3_EGFRWT cells; [1]) did it give?
Its GI50 is 1500 to 5000 nM.

With C=CC(=O)N1C[C@H]2C[C@@H]1C[C@H]2c1ccn2ncnc(Nc3ccc(Oc4ccn5ncnc5c4)c(C)c3)c12 (relative stereo) [Example 104, Rel-1-1(1S,4S,5R)-5-{4-[(3-methyl-4-{[1,2,4]triazolo[1,5-a]pyridin-7-yloxy}phenyl)amino]pyrrolo[2,1-f][1,2,4]triazin-5-yl}-2-azabicyclo[2.2.1]heptan-2-yl]prop-2-en-1-one] as the molecule, how does the GI50 (BaF3_HER2WT cells; [2]) read?
The GI50 was 500 to 1500 nM.

What about the GI50 (BaF3_HER2YVMA cells; 3-day treatment, CellTiterGlo, read-out: Cell growth inhibition activity, HER2 - YVMA) of the same molecule?
Its GI50 is 1500 to 5000 nM.

And the GI50 (BaF3_EGFRWT cells; [1])?
The GI50 was 1500 to 5000 nM.

Which results are given for Cc1cc(Nc2ncnn3ccc(C4CCN(C(=O)/C=C/CN(C)C)C4)c23)ccc1Oc1ccn2ncnc2c1 (single isomer, unassigned) [Examples 99 and 100, first eluting isomer, (E)-1-(3-(4-((4-([1,2,4]triazolo[1,5-a]pyridin-7-yloxy)-3-methylphenyl)amino)pyrrolo[2,1-f][1,2,4]triazin-5-yl)pyrrolidin-1-yl)-4-(dimethylamino)but-2-en-1-one]?
GI50 (BaF3_HER2WT cells; [3]): < 200 nM; GI50 (BaF3_HER2YVMA cells; [4]): < 200 nM; GI50 (BaF3_EGFRWT cells; [5]): 1500 to 5000 nM

What does the source list for Cc1cc(Nc2ncnn3ccc(C4CCN(C(=O)/C=C/CN(C)C)C4)c23)ccc1Oc1ccn2ncnc2c1 (single isomer, unassigned) [Examples 99 and 100, second eluting isomer, (E)-1-(3-(4-((4-([1,2,4]triazolo[1,5-a]pyridin-7-yloxy)-3-methylphenyl)amino)pyrrolo[2,1-f][1,2,4]triazin-5-yl)pyrrolidin-1-yl)-4-(dimethylamino)but-2-en-1-one]?
GI50 (BaF3_HER2WT cells; [3]): < 200 nM; GI50 (BaF3_HER2YVMA cells; [4]): 500 to 1500 nM; GI50 (BaF3_EGFRWT cells; [5]): 1500 to 5000 nM

With C=CC(=O)N1CCCC(c2ccn3ncnc(Nc4ccc(Oc5ccn6ncnc6c5)c(C)c4)c23)CC1 (single isomer, unassigned) [Examples 111 and 112, second eluting isomer, 1-(4-(4-((4-([1,2,4]triazolo[1,5-a]pyridin-7-yloxy)-3-methylphenyl)amino)pyrrolo-[2,1-f][1,2,4]triazin-5-yl)azepan-1-yl)prop-2-en-1-one] as the molecule, how does the GI50 (BaF3_EGFRWT cells; [5]) read?
Its GI50 is 1500 to 5000 nM.

With Cc1cc(Nc2ncnn3ccc(C4CCN(C(=O)/C=C/CN(C)C)CC4)c23)ccc1Oc1ccn2ncnc2c1 [Example 21, (E)-1-(4-(4-((4-([1,2,4]triazolo[1,5-a]pyridin-7-yloxy)-3-methylphenyl)amino)pyrrolo[2,1-f][1,2,4]triazin-5-yl)piperidin-1-yl)-4-(dimethylamino)but-2-en-1-one] as the molecule, how does the GI50 (BaF3_EGFRWT cells; [1]) read?
Its GI50 is 1500 to 5000 nM.

For COC1CN(C/C=C/C(=O)N2CC(c3ccn4ncnc(Nc5ccc(Oc6ccn7ncnc7c6)c(C)c5)c34)C2)C1 [Example 39, (E)-1-(3-(4-((4-([1,2,4]triazolo[1,5-a]pyridin-7-yloxy)-3-methylphenyl)amino)pyrrolo[2,1-f][1,2,4]triazin-5-yl)azetidin-1-yl)-4-(3-methoxyazetidin-1-yl)but-2-en-1-one], which GI50 (BaF3_HER2WT cells; [2]) is on record?
The GI50 was < 200 nM.

What about the GI50 (BaF3_EGFRWT cells; [1]) of the same molecule?
The GI50 was 1500 to 5000 nM.

Which results are given for Cc1cc(Nc2ncnn3ccc(C(=O)NCCCN(C)C)c23)ccc1Oc1ccn2ncnc2c1 [Example 179, 4-((4-([1,2,4]triazolo[1,5-a]pyridin-7-yloxy)-3-methylphenyl)amino)-N-(3-(dimethylamino)-propyl)pyrrolo[2,1-f][1,2,4]triazine-5-carboxamide hydrochloride]?
GI50 (BaF3_HER2WT cells; [2]): 200 to 500 nM; GI50 (BaF3_EGFRWT cells; [1]): > 5000 nM
